Results as given in DBAASP.
In brackets after ≈: the same amount, converted by molar mass. One block for each molecule: values may come before it.

Assays:
Assay in all cases: ≥ marks a high value that may be exact or a test limit, other limits are often not marked, values filed in µg/mL are converted to µM
[1] = tested on: Salmonella typhimurium KCTC 1926
[2] = tested on: Bacillus subtilis KCTC 3068
[3] = tested on: Staphylococcus aureus KCTC 1621
[4] = tested on: Staphylococcus epidermidis KCTC 1917
[5] = tested on: Escherichia coli KCTC 1682
[6] = tested on: Pseudomonas aeruginosa KCTC 1637
[7] = tested on: Staphylococcus aureus ATCC 6538
[8] = tested on: Candida albicans ATCC 90028
[9] = tested on: Staphylococcus aureus ATCC 43300
[10] = tested on: Escherichia coli ATCC 8739
[11] = tested on: Escherichia coli NEB5alpha
[12] = tested on: Escherichia coli ATCC 25922
[13] = tested on: Bacillus subtilis ATCC 6051
[14] = tested on: Enterococcus faecium ATCC 700221
[15] = tested on: Pseudomonas aeruginosa ATCC 27853
[16] = tested on: Staphylococcus aureus ATCC 33591
Escherichia coli K-12 = tested on: Escherichia coli K-12
[17] = tested on: Staphylococcus aureus USA 300
[18] = tested on: Pseudomonas aeruginosa PAO1
[19] = tested on: Staphylococcus aureus NCTC 8325-4
Klebsiella pneumoniae = tested on: Klebsiella pneumoniae

Structure (SMILES): CC[C@H](C)[C@H](NC(=O)[C@H](CCCCN)NC(=O)[C@@H](NC(=O)[C@H](CO)NC(=O)[C@H](CC(N)=O)NC(=O)[C@H](Cc1c[nH]c2ccccc12)NC(=O)[C@H](CC(C)C)NC(=O)CN)[C@@H](C)CC)C(=O)N[C@@H](C)C(=O)NCC(=O)N[C@@H](CCCCN)C(=O)N[C@@H](CCCCN)C(=O)N[C@@H](CC(C)C)C(=O)N[C@@H](Cc1ccccc1)C(=O)N[C@H](C(=O)N[C@@H](CC(N)=O)C(=O)N[C@H](C(=O)N[C@@H](CC(C)C)C(=O)N[C@@H](CC(=O)O)C(=O)N[C@@H](CCCCN)C(=O)N[C@H](C(=O)N[C@@H](CCCN=C(N)N)C(=O)N[C@@H](CO)C(=O)N[C@@H](CCCCN)C(=O)N[C@H](C(=O)N[C@@H](C)C(=O)NCC(=O)NCC(=O)N[C@@H](CO)C(=O)O)C(C)C)[C@@H](C)CC)C(C)C)C(C)C [GLWNSIKIAGKKLFVNVLDKIRSKVAGGS]
- MIC [7]: 6.3 µM (≈ 19.5 µg/mL)
- MIC [8]: ≥ 100 µM
- MIC [9]: 25 µM (≈ 77.5 µg/mL)
- MIC [10]: 3.1 µM (≈ 9.61 µg/mL)

Structure (SMILES): CC(C)C[C@H](NC(=O)[C@H](CC(C)C)NC(=O)[C@H](CCC(N)=O)NC(=O)[C@H](CCC(=O)O)NC(=O)[C@H](CC(C)C)NC(=O)[C@@H](N)Cc1ccc(O)cc1)C(=O)N[C@@H](CCCN=C(N)N)C(=O)O [YLEQLLR]
- MIC [11]: ≥ 241 µM
- MIC [12]: 40.1 µM (≈ 37.5 µg/mL)
- MIC [13]: ≥ 53.5 µM

Structure (SMILES): CC[C@H](C)[C@H](NC(=O)[C@H](CCCCN)NC(=O)[C@H](CCCCN)NC(=O)[C@H](CC(C)C)NC(=O)[C@H](CC(C)C)NC(=O)[C@H](CCCCN)NC(=O)[C@H](CCCCN)NC(=O)[C@@H](NC(=O)[C@H](CCCN=C(N)N)NC(=O)[C@H](CCCCN)NC(=O)[C@H](CC(C)C)NC(=O)[C@H](CC(C)C)NC(=O)CN)[C@@H](C)CC)C(=O)N[C@@H](CCCCN)C(=O)N[C@@H](CCCCN)C(=O)N[C@@H](CC(C)C)C(=O)N[C@@H](CC(C)C)C(N)=O [GLLKRIKKLLKKIKKLL]
- MIC [14]: 6.3 µM (≈ 12.8 µg/mL)
- MIC [15]: 12.5 µM (≈ 25.4 µg/mL)
- MIC [16]: 12.5 µM (≈ 25.4 µg/mL)
- MIC [12]: 12.5 µM (≈ 25.4 µg/mL)

Structure (SMILES): CC[C@H](C)[C@H](NC(=O)[C@H](CCCCN)NC(=O)[C@@H](NC(=O)[C@H](CO)NC(=O)[C@H](CC(N)=O)NC(=O)[C@H](Cc1c[nH]c2ccccc12)NC(=O)[C@H](CC(C)C)NC(=O)CN)[C@@H](C)CC)C(=O)N[C@@H](C)C(=O)NCC(=O)N[C@@H](CCCCN)C(=O)N[C@@H](CCCCN)C(=O)N[C@@H](CC(C)C)C(=O)N[C@@H](Cc1ccccc1)C(=O)N[C@H](C(=O)N[C@@H](CC(N)=O)C(=O)N[C@H](C(=O)N[C@@H](CC(C)C)C(=O)N[C@@H](CC(=O)O)C(=O)N[C@@H](CCCCN)C(=O)N[C@H](C(=O)N[C@@H](CCCN=C(N)N)C(=O)N[C@H]1CSSC[C@@H](C(=O)N[C@@H](CCCCN)C(=O)N[C@H](C(=O)N[C@@H](CO)C(=O)N2CCC[C@H]2C(=O)N[C@@H](CC(=O)O)C(=O)N[C@H](C(=O)N[C@@H](CCC(=O)O)C(=O)N[C@@H](Cc2ccc(O)cc2)C(=O)N[C@@H](Cc2cnc[nH]2)C(=O)N[C@@H](CCCCN)C(=O)O)C(C)C)[C@@H](C)O)NC(=O)CNC(=O)CNC(=O)[C@H](C)NC(=O)[C@H](C(C)C)NC(=O)[C@H](CCCCN)NC1=O)[C@@H](C)CC)C(C)C)C(C)C [GLWNSIKIAGKKLFVNVLDKIRCKVAGGCKTSPDVEYHK]
- MIC [7]: 6.3 µM (≈ 27.2 µg/mL)
- MIC [9]: 100 µM (≈ 432 µg/mL)
- MIC [10]: 6.3 µM (≈ 27.2 µg/mL)

Structure (SMILES): CC[C@H](C)[C@H](NC(=O)[C@H](Cc1cnc[nH]1)NC(=O)[C@H](CCCCN)NC(=O)[C@@H](NC(=O)[C@@H](NC(=O)[C@H](CC(=O)O)NC(=O)[C@H](Cc1ccccc1)NC(=O)[C@H](Cc1c[nH]c2ccccc12)NC(=O)CN)C(C)C)C(C)C)C(=O)N[C@@H](C)C(=O)N[C@@H](CCCCN)C(=O)N[C@@H](CCCNC(=N)N)C(=O)N[C@@H](Cc1ccccc1)C(N)=O [GWFDVVKHIAKRF]
- MIC [17]: ≥ 50 µM
- MIC (Escherichia coli K-12): 12.5 µM (≈ 20 µg/mL)

Structure (SMILES): CC[C@H](C)[C@H](N)C(=O)N[C@@H](CCCCN)C(=O)N[C@@H](CCCCN)C(=O)N[C@H](C(=O)N[C@H](C(=O)N[C@@H](CCCCN)C(=O)N[C@@H](CCCCN)C(=O)N[C@H](C(=O)N[C@H](C(=O)N[C@@H](CCCCN)C(=O)N[C@@H](CCCCN)C(=O)N[C@H](C(N)=O)[C@@H](C)CC)[C@@H](C)CC)[C@@H](C)CC)[C@@H](C)CC)[C@@H](C)CC [IKKIIKKIIKKI]
- MIC [18]: 15.6 µM (≈ 22.9 µg/mL)
- MIC [19]: ≥ 250 µM
- MIC (Klebsiella pneumoniae): > 500 µM
- MIC (Escherichia coli K-12): 15.6 µM (≈ 22.9 µg/mL)

Structure (SMILES): CC[C@H](C)[C@H](NC(=O)[C@@H](N)Cc1cnc[nH]1)C(=O)N[C@@H](CCC(N)=O)C(=O)N[C@@H](CCCCN)C(=O)N[C@@H](CCC(=O)O)C(=O)N[C@@H](CC(=O)O)C(=O)N[C@H](C(=O)N1CCC[C@H]1C(=O)N[C@@H](CO)C(=O)N[C@@H](CCC(=O)O)C(=O)N[C@@H](CCCN=C(N)N)C(=O)N[C@@H](Cc1ccc(O)cc1)C(=O)N[C@@H](CC(C)C)C(=O)NCC(=O)N[C@@H](Cc1ccc(O)cc1)C(=O)N[C@@H](CC(C)C)C(=O)N[C@@H](CCC(=O)O)C(=O)N[C@@H](CCC(N)=O)C(=O)N[C@@H](CC(C)C)C(=O)N[C@@H](CC(C)C)C(=O)N[C@@H](CCCN=C(N)N)C(=O)N[C@@H](CC(C)C)C(=O)N[C@@H](CCCCN)C(=O)O)C(C)C [HIQKEDVPSERYLGYLEQLLRLK]
- MIC [11]: ≥ 292 µM
- MIC [12]: 583 µM (≈ 1650 µg/mL)
- MIC [13]: ≥ 292 µM

Further lines, results first:

- MIC [1]: 2 µM (≈ 3.36 µg/mL)
- MIC [2]: 2 µM (≈ 3.36 µg/mL)
- MIC [3]: 4 µM (≈ 6.72 µg/mL)
- MIC [4]: 1 µM (≈ 1.68 µg/mL)
- MIC [5]: 2 µM (≈ 3.36 µg/mL)
- MIC [6]: 4 µM (≈ 6.72 µg/mL)
Structure (SMILES): CC[C@H](C)[C@H](NC(=O)[C@H](CCCN=C(N)N)NC(=O)[C@H](CCCCN)NC(=O)[C@H](CCCN=C(N)N)NC(=O)[C@@H](NC(=O)[C@H](CCCN=C(N)N)NC(=O)[C@@H](N)CCCCN)[C@@H](C)CC)C(=O)N[C@@H](CCCCN)C(=O)N[C@@H](CCCCN)C(=O)N[C@@H](Cc1c[nH]c2ccccc12)C(=O)N[C@@H](CC(C)C)C(=O)N[C@@H](CCCN=C(N)N)C(N)=O [KRIRKRIKKWLR]

- MIC [15]: 64 µM (≈ 117 µg/mL)
- MIC (Escherichia coli K-12): ≥ 128 µM
Structure (SMILES): CC[C@H](C)[C@H](NC(=O)[C@H](CCCCN)NC(=O)[C@H](CCCCN)NC(=O)[C@H](CC(C)C)NC(=O)[C@H](C)NC(=O)CNC(=O)[C@@H](NC(=O)[C@H](C)NC(=O)[C@H](CCCCN)NC(=O)[C@@H]1CCCN1C(=O)[C@H](CC(C)C)NC(=O)[C@H](CC(C)C)NC(=O)[C@H](CCCCN)NC(=O)[C@H](Cc1ccccc1)NC(=O)[C@H](Cc1ccccc1)NC(=O)[C@@H](N)Cc1ccccc1)[C@@H](C)CC)C(=O)O [FFFKLLPKAIGALKKI]

- MIC [11]: ≥ 1000 µM
- MIC [13]: ≥ 500 µM
Structure (SMILES): NCCCC[C@H](NC(=O)[C@H](CCC(=O)O)NC(=O)[C@H](CC(=O)O)NC(=O)[C@H](CCC(=O)O)NC(=O)[C@H](CC(=O)O)NC(=O)[C@H](CCC(=O)O)NC(=O)[C@@H](N)CC(=O)O)C(=O)N[C@@H](CCCN=C(N)N)C(=O)N[C@@H](CCC(N)=O)C(=O)N1CCC[C@H]1C(=O)N[C@@H](Cc1cnc[nH]1)C(=O)O [DEDEDEKRQPH]

- MIC [11]: ≥ 493 µM
Structure (SMILES): CC[C@H](C)[C@H](NC(=O)[C@@H]1CCCN1C(=O)[C@H](CCSC)NC(=O)[C@H](CC(=O)O)NC(=O)[C@H](CCCN=C(N)N)NC(=O)[C@H](CCC(N)=O)NC(=O)[C@@H]1CCCN1C(=O)[C@H](Cc1ccc(O)cc1)NC(=O)[C@@H]1CCCN1C(=O)[C@@H](N)C(C)C)C(=O)N[C@@H](CCC(N)=O)C(=O)N[C@@H](C)C(=O)N[C@@H](Cc1ccccc1)C(=O)N[C@@H](CC(C)C)C(=O)O [VPYPQRDMPIQAFL]

- MIC [11]: 21.4 µM (≈ 68.8 µg/mL)
- MIC [12]: 171 µM (≈ 550 µg/mL)
- MIC [13]: 2.67 µM (≈ 8.6 µg/mL)
Structure (SMILES): CC[C@H](C)[C@H](NC(=O)[C@H](Cc1c[nH]c2ccccc12)NC(=O)[C@@H]1CCCN1C(=O)[C@H](CCCCN)NC(=O)[C@H](CCSC)NC(=O)[C@H](C)NC(=O)[C@H](CCCCN)NC(=O)[C@H](CCC(N)=O)NC(=O)[C@H](Cc1cnc[nH]1)NC(=O)[C@H](CCC(N)=O)NC(=O)[C@H](Cc1ccc(O)cc1)NC(=O)[C@@H](NC(=O)[C@@H](N)[C@@H](C)O)C(C)C)C(=O)N[C@@H](CCC(N)=O)C(=O)N1CCC[C@H]1C(=O)N[C@@H](CCCCN)C(=O)N[C@H](C(=O)N[C@@H](CCCCN)C(=O)N[C@H](C(=O)N[C@H](C(=O)N1CCC[C@H]1C(=O)N[C@@H](Cc1ccc(O)cc1)C(=O)N[C@H](C(=O)N[C@@H](CCCN=C(N)N)C(=O)N[C@@H](Cc1ccc(O)cc1)C(=O)N[C@@H](CC(C)C)C(=O)O)C(C)C)[C@@H](C)CC)C(C)C)[C@@H](C)O [TVYQHQKAMKPWIQPKTKVIPYVRYL]
